According to ChEMBL document CHEMBL4507292 (2021):

Columns and labels:
[1] = target: Histamine H1 receptor (Homo sapiens) (UniProt P35367); conditions: Compound concentration 10.0 uM
[2] = target: Mitogen-activated protein kinase 11 (Homo sapiens) (UniProt Q15759); conditions: Compound concentration 1000.0 nM
[3] = test system: Receptor-type tyrosine-protein kinase FLT3 (Homo sapiens), P36888 [D835V]; conditions: Compound concentration 1000.0 nM
[4] = target: Tyrosine-protein kinase Fgr (Homo sapiens) (UniProt P09769); conditions: Compound concentration 1000.0 nM
[5] = test system: Tyrosine-protein kinase ABL1 (Homo sapiens), P00519 [E255K]; conditions: Compound concentration 1000.0 nM
[6] = target: Mitogen-activated protein kinase 9 (Homo sapiens) (UniProt P45984); conditions: Compound concentration 1000.0 nM
[7] = target: 5-hydroxytryptamine receptor 1B (Homo sapiens) (UniProt P28222); conditions: Compound concentration 10.0 uM
[8] = target: Cyclin-dependent kinase 14 (Homo sapiens) (UniProt O94921); conditions: Compound concentration 1000.0 nM
[9] = test system: eIF-2-alpha kinase GCN2 (Homo sapiens), Q9P2K8 [S808G]; conditions: Compound concentration 1000.0 nM
eIF-2-alpha kinase GCN2 (Homo sapiens), Q9P2K8 [S808G], sequence (Q9P2K8 whole entry S808G): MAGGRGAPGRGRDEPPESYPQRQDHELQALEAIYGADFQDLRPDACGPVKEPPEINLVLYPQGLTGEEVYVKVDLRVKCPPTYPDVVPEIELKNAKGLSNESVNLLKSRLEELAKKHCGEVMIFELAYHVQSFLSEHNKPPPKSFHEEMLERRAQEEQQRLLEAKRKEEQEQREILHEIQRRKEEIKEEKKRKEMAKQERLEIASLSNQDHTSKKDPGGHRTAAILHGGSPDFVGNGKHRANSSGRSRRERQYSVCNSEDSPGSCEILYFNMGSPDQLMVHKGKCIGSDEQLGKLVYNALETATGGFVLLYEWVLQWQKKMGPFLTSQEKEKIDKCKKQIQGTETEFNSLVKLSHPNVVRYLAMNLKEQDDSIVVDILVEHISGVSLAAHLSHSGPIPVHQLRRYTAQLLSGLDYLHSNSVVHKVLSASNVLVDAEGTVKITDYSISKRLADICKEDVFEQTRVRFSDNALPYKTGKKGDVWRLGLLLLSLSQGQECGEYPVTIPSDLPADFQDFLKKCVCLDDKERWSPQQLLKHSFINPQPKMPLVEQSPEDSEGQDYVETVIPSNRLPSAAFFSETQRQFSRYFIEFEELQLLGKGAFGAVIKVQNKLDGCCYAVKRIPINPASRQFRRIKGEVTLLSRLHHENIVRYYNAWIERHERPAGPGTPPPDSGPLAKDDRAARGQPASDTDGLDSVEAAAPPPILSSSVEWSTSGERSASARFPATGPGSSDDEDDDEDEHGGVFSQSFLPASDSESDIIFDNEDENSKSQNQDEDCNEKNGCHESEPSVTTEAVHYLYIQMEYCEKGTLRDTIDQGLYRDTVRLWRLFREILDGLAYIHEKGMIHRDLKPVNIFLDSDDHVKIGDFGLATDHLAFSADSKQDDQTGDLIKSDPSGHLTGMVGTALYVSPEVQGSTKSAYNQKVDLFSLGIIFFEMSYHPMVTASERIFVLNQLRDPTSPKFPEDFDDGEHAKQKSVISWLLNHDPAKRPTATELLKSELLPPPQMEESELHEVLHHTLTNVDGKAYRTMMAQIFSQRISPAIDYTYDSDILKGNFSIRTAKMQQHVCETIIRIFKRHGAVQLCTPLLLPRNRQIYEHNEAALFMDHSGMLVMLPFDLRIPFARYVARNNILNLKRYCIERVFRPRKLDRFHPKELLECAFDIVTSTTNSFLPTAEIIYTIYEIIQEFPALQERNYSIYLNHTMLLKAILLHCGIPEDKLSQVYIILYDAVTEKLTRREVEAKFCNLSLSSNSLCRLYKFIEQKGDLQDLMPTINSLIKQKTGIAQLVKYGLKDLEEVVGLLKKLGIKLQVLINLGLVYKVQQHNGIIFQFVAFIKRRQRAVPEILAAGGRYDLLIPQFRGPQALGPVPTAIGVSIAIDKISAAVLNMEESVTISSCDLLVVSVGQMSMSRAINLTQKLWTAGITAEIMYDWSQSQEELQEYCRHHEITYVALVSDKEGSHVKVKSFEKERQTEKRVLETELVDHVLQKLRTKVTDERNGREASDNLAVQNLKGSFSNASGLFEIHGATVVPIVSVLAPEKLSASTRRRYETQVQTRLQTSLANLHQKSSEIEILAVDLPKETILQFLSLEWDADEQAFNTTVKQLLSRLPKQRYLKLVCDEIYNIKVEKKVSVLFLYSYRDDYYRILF

[10] = target: Serine/threonine-protein kinase tousled-like 2 (Homo sapiens) (UniProt Q86UE8); conditions: Compound concentration 1000.0 nM
Serine/threonine-protein kinase tousled-like 2 (Homo sapiens), sequence (Q86UE8 whole entry, looked up): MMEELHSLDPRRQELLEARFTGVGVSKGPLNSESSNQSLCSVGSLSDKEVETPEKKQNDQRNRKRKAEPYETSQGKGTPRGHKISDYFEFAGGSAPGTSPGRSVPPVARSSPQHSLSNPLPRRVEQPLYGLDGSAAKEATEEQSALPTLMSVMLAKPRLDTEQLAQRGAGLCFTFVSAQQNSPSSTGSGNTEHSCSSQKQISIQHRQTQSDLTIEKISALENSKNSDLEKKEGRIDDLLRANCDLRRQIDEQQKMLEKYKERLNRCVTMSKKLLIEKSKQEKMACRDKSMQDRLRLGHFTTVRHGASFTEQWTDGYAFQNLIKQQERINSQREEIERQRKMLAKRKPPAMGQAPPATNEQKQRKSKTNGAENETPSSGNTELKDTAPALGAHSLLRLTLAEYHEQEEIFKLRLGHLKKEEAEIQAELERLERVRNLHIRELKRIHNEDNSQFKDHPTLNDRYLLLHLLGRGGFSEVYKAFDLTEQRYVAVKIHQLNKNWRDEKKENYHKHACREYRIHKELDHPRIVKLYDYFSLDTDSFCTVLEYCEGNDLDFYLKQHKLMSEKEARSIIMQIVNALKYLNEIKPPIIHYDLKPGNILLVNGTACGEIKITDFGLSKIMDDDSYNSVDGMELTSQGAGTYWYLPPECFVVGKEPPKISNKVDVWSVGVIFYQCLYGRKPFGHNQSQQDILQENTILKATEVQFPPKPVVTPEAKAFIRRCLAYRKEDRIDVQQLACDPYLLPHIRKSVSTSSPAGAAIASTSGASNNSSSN

[11] = test system: Proto-oncogene tyrosine-protein kinase receptor Ret (Homo sapiens), P07949 [V804M]; conditions: Compound concentration 1000.0 nM
Proto-oncogene tyrosine-protein kinase receptor Ret (Homo sapiens), P07949 [V804M], sequence (P07949 whole entry V804M): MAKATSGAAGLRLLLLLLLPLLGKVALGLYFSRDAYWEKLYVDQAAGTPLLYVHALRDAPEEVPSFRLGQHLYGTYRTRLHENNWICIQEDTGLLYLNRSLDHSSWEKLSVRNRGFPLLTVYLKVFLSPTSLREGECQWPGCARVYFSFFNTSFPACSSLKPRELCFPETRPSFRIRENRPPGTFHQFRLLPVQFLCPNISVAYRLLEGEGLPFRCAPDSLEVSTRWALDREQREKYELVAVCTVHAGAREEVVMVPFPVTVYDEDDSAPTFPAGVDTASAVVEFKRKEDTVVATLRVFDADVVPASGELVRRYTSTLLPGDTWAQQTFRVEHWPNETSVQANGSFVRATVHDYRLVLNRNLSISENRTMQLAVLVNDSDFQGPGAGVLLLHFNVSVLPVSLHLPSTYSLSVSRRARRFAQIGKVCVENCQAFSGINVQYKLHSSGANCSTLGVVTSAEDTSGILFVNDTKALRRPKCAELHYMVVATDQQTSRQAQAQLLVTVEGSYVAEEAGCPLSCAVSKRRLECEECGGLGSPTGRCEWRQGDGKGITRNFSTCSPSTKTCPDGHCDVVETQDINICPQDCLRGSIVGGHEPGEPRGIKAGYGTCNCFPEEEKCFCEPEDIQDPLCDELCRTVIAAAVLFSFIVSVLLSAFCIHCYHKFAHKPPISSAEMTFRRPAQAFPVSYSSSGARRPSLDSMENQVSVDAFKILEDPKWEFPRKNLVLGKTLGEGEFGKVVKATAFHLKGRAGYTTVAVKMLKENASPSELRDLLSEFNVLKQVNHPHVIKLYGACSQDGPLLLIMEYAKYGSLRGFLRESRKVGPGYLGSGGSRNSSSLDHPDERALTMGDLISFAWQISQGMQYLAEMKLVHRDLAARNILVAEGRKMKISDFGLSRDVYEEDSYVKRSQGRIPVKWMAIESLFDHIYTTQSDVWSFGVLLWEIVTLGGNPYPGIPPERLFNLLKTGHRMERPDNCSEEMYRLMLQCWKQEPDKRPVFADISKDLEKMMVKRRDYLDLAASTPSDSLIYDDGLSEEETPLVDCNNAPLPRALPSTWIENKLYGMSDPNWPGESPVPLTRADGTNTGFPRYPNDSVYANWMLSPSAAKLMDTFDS

[12] = target: High affinity nerve growth factor receptor (Homo sapiens) (UniProt P04629); conditions: Compound concentration 1000.0 nM
[13] = target: Serine/threonine-protein kinase PAK 5 (Homo sapiens) (UniProt Q9P286); conditions: Compound concentration 1000.0 nM
[14] = target: Mitogen-activated protein kinase 6 (Homo sapiens) (UniProt Q16659); conditions: Compound concentration 1000.0 nM
[15] = target: Ephrin type-A receptor 8 (Homo sapiens) (UniProt P29322); conditions: Compound concentration 1000.0 nM
[16] = target: Tyrosine-protein kinase receptor Tie-1 (Homo sapiens) (UniProt P35590); conditions: Compound concentration 1000.0 nM
[17] = target: Proto-oncogene tyrosine-protein kinase receptor Ret (Homo sapiens) (UniProt P07949); conditions: Compound concentration 1000.0 nM
[18] = target: Phosphatidylinositol 4,5-bisphosphate 3-kinase catalytic subunit delta isoform (Homo sapiens) (UniProt O00329); conditions: Compound concentration 1000.0 nM
[19] = target: Mitogen-activated protein kinase kinase kinase 14 (Homo sapiens) (UniProt Q99558); conditions: Compound concentration 1000.0 nM
[20] = target: Cyclin-dependent kinase 2 (Homo sapiens) (UniProt P24941); conditions: Compound concentration 1000.0 nM
[21] = test system: Proto-oncogene tyrosine-protein kinase receptor Ret (Homo sapiens), P07949 [M918T]; conditions: Compound concentration 1000.0 nM
Proto-oncogene tyrosine-protein kinase receptor Ret (Homo sapiens), P07949 [M918T], sequence (P07949 whole entry M918T): as the sequence (P07949 whole entry V804M) above, with M804V, M918T counted along it

[22] = target: Ribosomal protein S6 kinase alpha-2 (Homo sapiens) (UniProt Q15349); conditions: Compound concentration 1000.0 nM
[23] = target: Phosphatidylinositol 4,5-bisphosphate 3-kinase catalytic subunit alpha isoform (Homo sapiens) (UniProt P42336); conditions: Compound concentration 1000.0 nM
[24] = target: Cyclin-dependent kinase 18 (Homo sapiens) (UniProt Q07002); conditions: Compound concentration 1000.0 nM
[25] = target: Glycogen synthase kinase-3 beta (Homo sapiens) (UniProt P49841); conditions: Compound concentration 1000.0 nM
[26] = target: Ribosomal protein S6 kinase alpha-6 (Homo sapiens) (UniProt Q9UK32); conditions: Compound concentration 1000.0 nM
[27] = target: Serine/threonine-protein kinase/endoribonuclease IRE1 (Homo sapiens) (UniProt O75460); conditions: Compound concentration 1000.0 nM
[28] = target: Calcium-dependent protein kinase 1 (Plasmodium falciparum) (UniProt P62344); conditions: Compound concentration 1000.0 nM
[29] = target: Discoidin domain-containing receptor 2 (Homo sapiens) (UniProt Q16832); conditions: Compound concentration 1000.0 nM
[30] = target: Serine/threonine-protein kinase MARK2 (Homo sapiens) (UniProt Q7KZI7); conditions: Compound concentration 1000.0 nM
[31] = target: Serine/threonine-protein kinase OSR1 (Homo sapiens) (UniProt O95747); conditions: Compound concentration 1000.0 nM
[32] = target: Serine/threonine-protein kinase pim-3 (Homo sapiens) (UniProt Q86V86); conditions: Compound concentration 1000.0 nM
[33] = target: Ephrin type-B receptor 6 (Homo sapiens) (UniProt O15197); conditions: Compound concentration 1000.0 nM
[34] = target: Ribosomal protein S6 kinase alpha-4 (Homo sapiens) (UniProt O75676); conditions: Compound concentration 1000.0 nM
[35] = target: Cyclin-dependent kinase 11A (Homo sapiens) (UniProt Q9UQ88); conditions: Compound concentration 1000.0 nM
Cyclin-dependent kinase 11A (Homo sapiens), sequence (Q9UQ88 whole entry): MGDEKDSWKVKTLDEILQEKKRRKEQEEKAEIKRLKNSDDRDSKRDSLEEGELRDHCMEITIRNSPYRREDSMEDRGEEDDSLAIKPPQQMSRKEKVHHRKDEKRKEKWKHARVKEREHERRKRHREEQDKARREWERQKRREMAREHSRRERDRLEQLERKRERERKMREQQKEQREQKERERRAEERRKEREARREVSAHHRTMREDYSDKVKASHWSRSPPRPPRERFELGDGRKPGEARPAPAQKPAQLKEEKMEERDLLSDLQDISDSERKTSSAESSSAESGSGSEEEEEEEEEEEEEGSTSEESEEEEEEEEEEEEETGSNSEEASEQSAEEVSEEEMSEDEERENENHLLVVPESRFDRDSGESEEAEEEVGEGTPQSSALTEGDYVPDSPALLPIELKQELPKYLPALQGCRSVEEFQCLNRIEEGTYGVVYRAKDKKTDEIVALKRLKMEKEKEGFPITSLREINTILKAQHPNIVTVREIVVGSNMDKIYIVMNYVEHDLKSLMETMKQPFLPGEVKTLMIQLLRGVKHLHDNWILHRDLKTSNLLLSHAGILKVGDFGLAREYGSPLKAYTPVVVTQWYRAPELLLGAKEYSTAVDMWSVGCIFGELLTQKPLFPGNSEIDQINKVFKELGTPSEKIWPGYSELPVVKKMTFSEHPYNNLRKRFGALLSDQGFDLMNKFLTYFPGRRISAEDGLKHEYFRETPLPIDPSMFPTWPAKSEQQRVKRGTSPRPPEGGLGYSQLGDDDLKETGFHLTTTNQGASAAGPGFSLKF

[36] = target: Inhibitor of nuclear factor kappa-B kinase subunit epsilon (Homo sapiens) (UniProt Q14164); conditions: Compound concentration 1000.0 nM
[37] = test system: Receptor-type tyrosine-protein kinase FLT3 (Homo sapiens), P36888 [D835Y]; conditions: Compound concentration 1000.0 nM
[38] = target: Mitogen-activated protein kinase 14 (Homo sapiens, UniProt Q16539); conditions: Compound concentration 1000.0 nM
Mitogen-activated protein kinase 14, sequence (Q16539 whole entry): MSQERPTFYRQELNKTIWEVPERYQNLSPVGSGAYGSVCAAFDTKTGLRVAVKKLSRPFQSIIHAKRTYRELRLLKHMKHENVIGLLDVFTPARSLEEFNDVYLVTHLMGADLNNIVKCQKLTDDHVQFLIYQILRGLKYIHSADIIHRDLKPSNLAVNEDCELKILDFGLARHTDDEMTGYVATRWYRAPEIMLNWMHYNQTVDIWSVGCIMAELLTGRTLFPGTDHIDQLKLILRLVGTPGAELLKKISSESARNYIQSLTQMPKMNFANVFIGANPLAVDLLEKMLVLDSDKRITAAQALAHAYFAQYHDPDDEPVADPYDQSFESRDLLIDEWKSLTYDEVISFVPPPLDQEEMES

[39] = target: Fibroblast growth factor receptor 2 (Homo sapiens) (UniProt P21802); conditions: Compound concentration 1000.0 nM
[40] = target: Serine/threonine-protein kinase haspin (Homo sapiens) (UniProt Q8TF76); conditions: Compound concentration 1000.0 nM
[41] = target: Tyrosine-protein kinase Blk (Homo sapiens) (UniProt P51451); conditions: Compound concentration 1000.0 nM
[42] = test system: Phosphatidylinositol 4,5-bisphosphate 3-kinase catalytic subunit alpha isoform (Homo sapiens), P42336 [M1043I]; conditions: Compound concentration 1000.0 nM
[43] = target: Bone morphogenetic protein receptor type-1B (Homo sapiens) (UniProt O00238); conditions: Compound concentration 1000.0 nM
[44] = target: Mitogen-activated protein kinase kinase kinase kinase 5 (Homo sapiens) (UniProt Q9Y4K4); conditions: Compound concentration 1000.0 nM
[45] = target: Rho-associated protein kinase 2 (Homo sapiens) (UniProt O75116); conditions: Compound concentration 1000.0 nM

Mitogen-activated protein kinase 11 (Homo sapiens), sequence (Q15759 whole entry): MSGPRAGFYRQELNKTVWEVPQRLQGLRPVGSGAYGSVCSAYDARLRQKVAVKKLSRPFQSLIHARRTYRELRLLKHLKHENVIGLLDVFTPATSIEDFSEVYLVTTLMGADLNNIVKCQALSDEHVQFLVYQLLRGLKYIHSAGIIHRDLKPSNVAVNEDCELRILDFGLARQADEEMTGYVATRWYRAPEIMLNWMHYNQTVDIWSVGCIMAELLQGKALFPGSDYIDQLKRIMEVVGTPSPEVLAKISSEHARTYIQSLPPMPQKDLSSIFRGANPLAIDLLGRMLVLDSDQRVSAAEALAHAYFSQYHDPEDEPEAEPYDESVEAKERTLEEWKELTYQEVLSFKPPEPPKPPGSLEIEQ

O=C(O)c1cc(-c2ccc(C3CCNCC3)cc2)c2ccc(-c3ccc(C(F)(F)F)cc3)cc2c1 [PPTN]
inactive: inhibition [1] 21.6% | residual activity [2] 100% | residual activity [3] 100% | residual activity [4] 100% | residual activity [5] 87% | residual activity [6] 100% | inhibition [7] 20.4% | residual activity [8] 100% | residual activity [9] 100% | residual activity [10] 100% | residual activity [11] 100% | residual activity [12] 100% | residual activity [13] 100% | residual activity [14] 100% | residual activity [15] 100% | residual activity [16] 100% | residual activity [17] 90% | residual activity [18] 98% | residual activity [19] 100% | residual activity [20] 100% | residual activity [21] 92% | residual activity [22] 100% | residual activity [23] 100% | residual activity [24] 100% | residual activity [25] 100% | residual activity [26] 100% | residual activity [27] 100% | residual activity [28] 100% | residual activity [29] 100% | residual activity [30] 100% | residual activity [31] 100% | residual activity [32] 100% | residual activity [33] 96% | residual activity [34] 100% | residual activity [35] 100% | residual activity [36] 100% | residual activity [37] 100% | residual activity [38] 100% | residual activity [39] 100% | residual activity [40] 100% | residual activity [41] 86% | residual activity [42] 100% | residual activity [43] 100% | residual activity [44] 100% | residual activity [45] 100%

Cc1c(C(=O)O)cc(-c2ccc(C3CCNCC3)cc2)c2ccc(-c3ccc(C(F)(F)F)cc3)cc12 [PPTN-NC]
inactive: inhibition [1] 12.6% | residual activity [2] 100% | residual activity [3] 100% | residual activity [4] 100% | residual activity [5] 96% | residual activity [6] 100% | inhibition [7] 14.4% | residual activity [8] 100% | residual activity [9] 100% | residual activity [10] 100% | residual activity [11] 98% | residual activity [12] 100% | residual activity [13] 98% | residual activity [14] 100% | residual activity [15] 100% | residual activity [16] 100% | residual activity [17] 99% | residual activity [18] 100% | residual activity [19] 100% | residual activity [20] 100% | residual activity [21] 100% | residual activity [22] 100% | residual activity [23] 100% | residual activity [24] 100% | residual activity [25] 100% | residual activity [26] 100% | residual activity [27] 100% | residual activity [28] 100% | residual activity [29] 100% | residual activity [30] 100% | residual activity [31] 100% | residual activity [32] 100% | residual activity [33] 100% | residual activity [34] 88% | residual activity [35] 100% | residual activity [36] 100% | residual activity [37] 100% | residual activity [38] 100% | residual activity [39] 100% | residual activity [40] 100% | residual activity [41] 100% | residual activity [42] 100% | residual activity [43] 100% | residual activity [44] 100% | residual activity [45] 89%
